Structures can show the parent of a compound that is named as a salt.
Tests used:
HIV = assay: Test of preparations against HIV in cell culture (T-cell culture assay); type: cell-based; details: lowest concentration where no giant cells were observed; HIV-infected lymphocytes from donor blood, 3 days at 37° C.
Procedure: Test of Preparations Against HIV in Cell Culture
Complete medium additionally contains 20% fetal calf serum and 40 IU/ml recombinant interleukin 2.
Lymphocytes which have been isolated from fresh donor blood by means of Ficoll gradient centrifugation are cultured for 36 hours in complete medium with an addition of 2 μg/ml phytohemagglutinin (Wellcome) at 37° C. under 5% of CO2. After 10% of DMSO has been added, the cells are frozen at a density of 5 [formula]10^6 and stored in liquid nitrogen. For the test, the cells are defrosted, washed in RPMI medium and cultured for 3-4 days in the complete medium.
The test preparations were dissolved in DMSO at a concentration of 16.7 mg/ml and diluted in complete medium to 1 mg/ml.
0.4 ml of medium was introduced into 24-multiwell dishes. 0.1 ml of the dissolved preparation was added to the upper row of the dish, and, by transferring 0.1 ml portions, a geometric dilution series was established. Controls without preparation always contained 0.4 ml of complete medium containing 0.5% of DMSO. Lymphocyte cultures with a cell density of 5 [formula]10^5 cells/ml were infected by adding 1/50 volume supernatant from HIV-infected lymphocyte cultures. The titer of these culture supernatants was determined by end-point titration as 1-5 [formula]10^6 infectious units/ml. After 30 minutes' incubation at 37° C., the infected lymphocytes were removed by centrifugation and taken up in an equal volume of medium. From this cell suspension, 0.6 ml aliquots were transferred into all wells of the test plate. The mixtures were incubated for 3 days at 37° C.
The infected cell cultures were examined under the microscope for the presence of giant cells, which indicate active virus multiplication in the culture. The lowest concentration of preparation where no giant cells were observed was determined as inhibitory concentration against HIV. As a control, the supernatants from the culture plates were tested for the presence of HIV antigen with the aid of an HIV antigen test following the manufacturer's instructions (Organon).

[1] = target: T1, HIV reverse transcriptase (RT) (Human immunodeficiency virus type 1 group M subtype B, UniProt P03366); assay: Assay for HIV reverse transcriptase inhibition (scintillation proximity assay); type: biochemical; details: RT from HIV cloned in E. coli; SPA, 60 minutes (37° C.)
T1 construct: The enzyme RT (from HIV cloned in E. coli); purchased HT-Biotechnology Ltd, Cambridge, UK; host or cells: E. coli
Procedure: Assay of the Substances for HIV Reverse Transcriptase Inhibition
The activity of reverse transcriptase (RT) was determined with the aid of a scintillation proximity assay (SPA).
The reagent kit for the RT-SPA was obtained from Amersham/Buchler (Braunschweig).
The enzyme RT (from HIV cloned in E. coli) originated from HT-Biotechnology Ltd, Cambridge, UK.
The assay was carried out using the manufacturer's (Amersham) protocol manual, with the following modifications: bovine serum albumin was added to the assay buffer to give an end concentration of 0.5 mg/ml the assay was carried out in Eppendorf reaction vessels, using 100 μl volume per batch the manufacturer's RT concentrate (5000 U/ml) was diluted in Tris-HCl buffer 20 mM; pH 7.2; 30% of glycerol, to an activity of 15 U per ml the incubation time for the mixtures was 60 minutes (37° C.) after stopping the reaction and “developing” with the bead suspension, 130 μl of mixture were transferred to 4.5 ml of Tris-HCl buffer, 10 mM; pH 7.4; 0.15 M NaCl, and the tritium activity was measured by means of a [formula]-counter.
For a pre-assay for inhibitory activity, the substances were dissolved in DMSO (stock solution c=1 mg/ml), and tested as a 10^−1, 10^−2, 10^−3, etc., dilution in DMSO.
To determine IC50 values, the inhibitor stock solutions were diluted further in Tris-HCl buffer, 50 mM, pH 8, and tested in suitable concentrations.
The concentration corresponding to a 50% enzyme inhibition was determined from a plot of RT activity versus log Clnh.

Row | melting point | Compound | T-cell culture assay MIC (HIV) | Reverse Transcriptase Assay IC50 [1]
1 | ≥ 90 °C (dec.) | CC(C)CC1Nc2c(S(=O)(=O)Oc3ccccc3)ccc(N3CCN(C)CC3)c2NC1=O (stereo not drawn) (as salt: hydrochloride) [XXXII, 8-(4-Methyl-1-piperazinyl)-3-(2-methylpropyl)-5-phenoxysulfonyl-3,4-dihydroquinoxalin-2(1H)-one] | – | –
2 | 167 °C | CC1C(=O)Nc2ccc(Cl)cc2N1C1CC1 (racemic) [Example XVIII, (3RS)-6-Chloro-4-N-(cyclopropyl)-3-methyl-3,4-dihydroquinoxalin-2(1H)-one] | – | –
3 | 92 to 93 °C | CC(C)=CCN1c2ccccc2NC(=O)C1C (racemic) [XXV, (3RS)-3-Methyl-4-N-(3-methyl-2-buten-1-yl)-3,4-dihydroquinoxalin-2(1H)-one] | – | –
4 | 108 to 109 °C | CC(=O)CCN1c2ccccc2NC(=O)C1C (racemic) [XXXIV, (3RS)-3-Methyl-4-N-(3-oxo-1-butyl)-3,4-dihydroquinoxalin-2(1H)-one] | – | –
5 | – | CCOC(=O)N1c2cc(Cl)ccc2NC(=O)C1C (stereo not drawn) [Example 3-23] | 0.08 µg/mL | 0.1 to 1 µg/mL
6 | – | CCCOC(=O)N1c2cc(Cl)ccc2NC(=O)C1C (stereo not drawn) [Example 3-24] | 0.08 µg/mL | 0.1 to 1 µg/mL
7 | – | CCCCOC(=O)N1c2cc(Cl)ccc2NC(=O)C1C (stereo not drawn) [Example 3-25] | 0.4 µg/mL | 0.1 to 1 µg/mL
8 | – | CCC1C(=O)Nc2ccc(Cl)cc2N1CC=C(C)C (stereo not drawn) [Example 3-29] | <0.4 µg/mL | 0.1 to 1 µg/mL
9 | – | C=C(C)OC(=O)N1c2cc(Cl)ccc2NC(=O)C1CC (stereo not drawn) [Example 3-30] | <0.01 µg/mL | 0.025 µg/mL
10 | – | C=CCOC(=O)N1c2cc(Cl)ccc2NC(=O)C1CC (stereo not drawn) [Example 3-32] | <0.4 µg/mL | approx. 0.1 μg/ml
11 | – | C=C(C)OC(=O)N1c2cc(Cl)ccc2NC(=O)C1CC(C)C (stereo not drawn) [Example 3-49] | <0.8 µg/mL | approx. 1 μg/ml
12 | – | C=C(C)OC(=O)N1c2ccc(Cl)cc2NC(=O)C1C(C)C (stereo not drawn) [Example 3-57] | <0.8 µg/mL | approx. 1 μg/ml
13 | – | CSCC1C(=O)Nc2ccc(Cl)cc2N1CC=C(C)C (stereo not drawn) [Example 3-75] | <0.8 µg/mL | 0.1 to 1 µg/mL
14 | – | C=C(C)OC(=O)N1c2cc(Cl)ccc2NC(=O)C1CSC (stereo not drawn) [Example 3-76] | <0.08 µg/mL | 0.018 µg/mL
15 | – | C=C(C)OC(=O)N1c2cc(Cl)ccc2NC(=O)C1C(C)CC (stereo not drawn) [Example 3-81] | 0.08 µg/mL | approx. 1 μg/ml
16 | – | CC(C)=CCN1c2cc(Cl)ccc2NC(=O)C1(C)C [Example 6-1] | 0.4 µg/mL | approx. 1 μg/ml
17 | – | CC(C)=CCN1c2cccc(C)c2NC(=O)C1(C)C [Example 6-16] | <0.8 µg/mL | approx. 1 μg/ml
18 | – | C=C(C)OC(=O)N1c2cccc(C)c2NC(=O)C1(C)C [Example 6-17] | <0.8 µg/mL | 0.1 to 1 µg/mL
19 | – | CC(C)=CCN1c2ccc(C)c(C)c2NC(=O)C1(C)C [Example 6-27] | <0.4 µg/mL | approx. 1 μg/ml
20 | – | C=C(C)OC(=O)N1c2ccc(C)c(C)c2NC(=O)C1(C)C [Example 6-35] | <0.08 µg/mL | 0.1 to 1 µg/mL
21 | – | CC(C)OC(=O)N1c2cc(Cl)ccc2NC(=O)C1(C)C [Example 6-50] | <0.01 µg/mL | 0.01 to 0.1 µg/mL
22 | – | CC(C)=CCN1c2cc(Cl)ccc2NC(=S)C1C (stereo not drawn) [Example 7-2] | <0.01 µg/mL | 0.07 µg/mL

Row | melting point | Compound | T-cell culture assay MIC (HIV) | Reverse Transcriptase Assay IC50 [1]
23 | – | CC1C(=S)Nc2ccc(Cl)cc2N1Cc1ccccc1 (stereo not drawn) [Example 7-3] | <0.01 µg/mL | 0.07 µg/mL
24 | – | CC(C)=CCN1c2cc(Cl)ccc2NC(=S)C1(C)C [Example 7-7] | 0.04 µg/mL | 0.1 µg/mL
25 | – | C=CCOC(=O)N1c2cc(Cl)ccc2NC(=S)C1C (stereo not drawn) [Example 7-10] | <0.04 µg/mL | 0.11 µg/mL
26 | – | C=C(C)OC(=O)N1c2cc(Cl)ccc2NC(=S)C1(C)C [Example 7-11] | <0.01 µg/mL | 0.01 µg/mL
27 | – | C=C(C)OC(=O)N1c2ccc(Cl)cc2NC(=S)C1(C)C [Example 7-12] | <0.8 µg/mL | approx. 1 μg/ml
28 | – | CC1(C)Nc2cc(Cl)ccc2NC1=S [Example 7-13] | <0.08 µg/mL | 0.1 to 1 µg/mL
29 | – | C=C(C)OC(=O)N1c2cc(Cl)ccc2NC(=S)C1CC (stereo not drawn) [Example 7-14] | <0.08 µg/mL | 0.01 to 0.1 µg/mL
30 | – | CC(C)=CCN1c2cc(C)c(C)cc2NC(=S)C1(C)C [Example 7-16] | 0.4 µg/mL | approx. 1 μg/ml
31 | – | C=CCOC(=O)N1c2cc(Cl)ccc2NC(=S)C1(C)C [Example 7-21] | <0.01 µg/mL | 0.01 to 0.1 µg/mL
32 | – | CC(C)OC(=O)N1c2cc(Cl)ccc2NC(=S)C1(C)C [Example 7-22] | <0.01 µg/mL | 0.01 to 0.1 µg/mL
33 | – | C=C(C)OC(=O)N1c2cc(Cl)ccc2NC(=S)C1CSC (stereo not drawn) [Example 7-23] | <0.01 µg/mL | 0.01 to 0.1 µg/mL
34 | – | C#CCN1c2cc(Cl)ccc2NC(=O)C1C (stereo not drawn) [Example 10-9] | <0.8 µg/mL | approx. 1 μg/ml
35 | – | CC1C(=O)Nc2ccc(Cl)cc2N1Cc1ccccn1 (stereo not drawn) [Example 10-10] | 0.08 µg/mL | approx. 1 μg/ml
36 | – | CC1C(=O)Nc2ccc(Cl)cc2N1Cc1ccco1 (stereo not drawn) [Example 10-13] | 0.08 µg/mL | approx. 1 μg/ml
37 | – | CC1C(=O)Nc2ccc(Cl)cc2N1Cc1cccc([N+](=O)[O-])c1 (stereo not drawn) [Example 10-17] | 0.8 µg/mL | approx. 1 μg/ml
38 | – | CC1C(=O)Nc2ccc(Cl)cc2N1Cc1ccccc1[N+](=O)[O-] (stereo not drawn) [Example 10-18] | <0.8 µg/mL | 0.1 to 1 µg/mL
39 | – | CC1C(=O)Nc2ccc(Cl)cc2N1Cc1cccc(Cl)c1 (stereo not drawn) [Example 10-20] | <0.8 µg/mL | 0.1 to 1 µg/mL
40 | – | CC1C(=O)Nc2ccc(Cl)cc2N1Cc1ccccc1Cl (stereo not drawn) [Example 10-21] | <0.8 µg/mL | 0.1 to 1 µg/mL
41 | – | CC1C(=O)Nc2ccc(Cl)cc2N1Cc1c(Cl)cccc1Cl (stereo not drawn) [Example 10-27] | 0.8 µg/mL | 0.1 to 1 µg/mL
42 | – | CC1C(=O)Nc2ccc(Cl)cc2N1Cc1cc(Cl)cc(Cl)c1 (stereo not drawn) [Example 10-28] | <0.8 µg/mL | 0.1 to 1 µg/mL
43 | – | CC(C)OC(=O)N1c2cc(Cl)ccc2NC(=O)C1C (stereo not drawn) [Example 11-11] | 0.01 µg/mL | 0.1 to 1 µg/mL
44 | – | C=C(C)OC(=O)N1c2cc(Cl)ccc2NC(=O)[C@@H]1C [Example XIII, (3S)-6-Chloro-N-(isopropenyloxycarbonyl)-3-methyl-3,4-dihydroquinoxalin-2(1H)-one] | <0.16 µg/mL | 0.04 µg/mL

— US6369057B1, “Quinoxalines, processes for their preparation and their use” (Aventis Pharma Deutschland GmbH, priority 1991, dated 2002)
